Results as given in PMC10252594 (Cancers, 2023).

Assays:
[1] = test system: LAPC-4 xenografts; experiment: Cholesterol determination in tumor, liver, plasma (kit, method A); assay type: in vivo, mice; settings: 10 mg/kg PO, NS vs CTL
Protocol: A cholesterol quantification kit provided by Sigma-Aldrich (Catalog Number MAK043) was used following the manufacturer’s instructions to determine the concentration of total cholesterol, free cholesterol, and cholesteryl ester in samples. The cholesterol contents were measured in samples from two different protocols. […] Secondly, in tumor, liver, and plasma obtained at the end of the LAPC-4 xenograft experiment (control group and the group treated with RM-581 at 10 mg/kg/PO).

[2] = Tolerated dose of RM-581 in mice (dose escalation); assay type: in vivo
Protocol: It is important to note that animal death is not an accepted endpoint for CCAC. RM-581 was first dissolved in DMSO, and PG was added to obtain a final 8% concentration of co-solvent DMSO. The injected volume was 0.1 mL, but the number of injections ranged from 1, 2, or 3 to obtain the expected dose. Each week for […] consecutive weeks, an increased dose (60, 120, 240, 360, 480, 600, or 720 mg/kg) of RM-581 was administered by gavage (PO), and the mice were weighed and observed for 7 days to notice any signs of toxicity. The protocol was applied to four groups (Gr) divided as follows: Gr-1: 5 female mice received the vehicle only; Gr-2: 5 male mice received the vehicle only; Gr-3: 5 female mice treated with RM-581; and Gr-4: 5 male mice treated with RM-581.

C#C[C@]1(O)CC[C@H]2[C@@H]3CCc4cc(OC)c(N5CCN(C(=O)[C@@H]6CCCN6C(=O)c6ccc7ccccc7n6)CC5)cc4[C@H]3CC[C@@]21C [RM-581]
F-CHOL (free cholesterol), liver [1]: 2410 ± 10 (NS) µg/g | F-CHOL (free cholesterol), plasma [1]: 403 ± 120 (NS) µg/mL | F-CHOL (free cholesterol), tumor [1]: 3270 ± 236 (NS) µg/g | T-CHOL (total cholesterol), liver [1]: 2440 ± 475 (NS) µg/g | T-CHOL (total cholesterol), plasma [1]: 1820 ± 500 (NS) µg/mL | T-CHOL (total cholesterol), tumor [1]: 4543 ± 2476 (NS) µg/g | therapeutic index ([2]; assuming effective dose of 30 mg/kg): > 24 | signs of toxicity, dose escalation ([2]; normal male and female mice, 60, 120, 240, 360, 480, 600 and 720 mg/kg PO weekly): no signs of toxicity | body weight, treated vs control groups ([2]; normal mice, dose escalation up to 720 mg/kg PO, 7 weeks): no significant body weight difference
